Experimental data taken from US20240392305A1, “GENETICALLY MODIFIED BACTERIA AND USES THEREOF FOR THE INDUCIBLE EXPRESSION OF A NUCLEIC SEQUENCE OF INTEREST” (Institut National de Recherche Pour l'Agriculture, …, priority 2021, published 2024).

Experiments:
elafin = assay: Western blot detection of secreted elafin in culture supernatants; assay type: cell-based, human
Excerpt: FIG. 3. Production of elafin detected by Western blot in the supernatant of different S. thermophilus strains. (A) At OD600 0.2 and 0.5 for strain TIL1536 (ΔhtrA::aphA3 ΔsepM::spec), TIL1551 (blp::shp-rgg1358-Pster1357-elafin-P32 cm ΔhtrA::aphA3 ΔywdF::spec) and TIL1552 (blp::rgg1358-Pster1357-elafin-P32 cm ΔhtrA::aphA3 ΔywdF::spec). (B) At OD600 1 and 2 for strain TIL1536, TIL1551 and TIL1552. (C) At OD600 0.2, 0.5 and 1 for strain TIL1567 (blp::rgg1358-Pster1357-luxAB-aphA3 ΔhtrA::aphA3 ΔywdF::spec ΔpptAB::erm). Purified elafin was used as a positive control and strain TIL1536 as negative control (elafin non-producing strain). Induction of the production of elafin with the addition of synthetic SHP in the culture medium is mentioned with: +SHP.
For the preparation of the samples, derivatives of strain CNRZ1066 were grown in CDM at 42° C. When necessary, induction was performed with the addition of SHP peptide (EGIIVIVVG, SEQ ID NO: 24) at a final concentration of 1 μM for strain TIL1552 and 0.5 µM for strain TIL1567 in the growth medium at OD600 of 0.2. When the cultures reached the desired OD600, 10 ml were centrifuged at 3200 g for 10 min at room temperature. […]
For the Western blot experiments, 10 μl of the samples were diluted in Laemmli Buffer (4×) and heated to 95° C. for 5 minutes. […] Detection was finally recorded using a Chemidoc (Biorad).

SHP/Rgg1358 system = assay: Maximum luciferase activity of strain TIL1566 with different synthetic SHPs; assay type: cell-based, S. thermophilus; details: strain TIL1566 in CDM, 37° C., synthetic peptide 1 μM; mean of three independent experiments
Procedure: For the assessment of the maximum luciferase activity reached with the addition of different SHPs in the culture media of strain TIL1566 (blp::rgg1358-Pster1357-luxAB-aphA3 ΔpptAB::erm), cells were grown overday at 37° C. in CDM. These cultures were diluted to a final OD600 of 0.05 in 1 ml of CDM. Synthetic SHP peptides were added in the culture medium at a final concentration of 1 μM. 250 μl of these diluted cultures were transferred to the wells of a covered sterile white microplate with a transparent bottom. The cultures' OD600 and luminescence values were monitored at 37° C. every 10 minutes in an Infinite M200 spectroluminometer, as previously described (Fontaine et al., J. Bacteriol. 192:1444-1454, 2010). The maximum of luminescence was recovered from each kinetic. The maximum activity was reported in Relative Luminescent Units divided by the OD600 (RLU/OD600) and measured as the mean of three independent experiments.
In order to assess their efficiency, we used their synthetic mature form to record the maximum luciferase activity of strain TIL1566 (blp::rgg1358-Pster1357-luxAB ΔpptAB::erm) in CDM and compared it to the one obtained with SHP1358. We chose the mature SHPs of strain CNRZ1066 similar to the mature SHP1358 (EGIIVIVVG, SEQ ID NO: 24): the SHP associated to Rgg STR_RS07375 (EGIIVILVG, SEQ ID NO: 25), the SHP associated to Rgg STR_RS09145 (EGIIVIGVG, SEQ ID NO: 26) and the SHP associated to Rgg STR_RS04530 (ESIIVIAVG, SEQ ID NO: 27). The most efficient peptide was ESIIVIAVG (SEQ ID NO: 27) with a maximum relative luciferase activity that reached 95% of the one obtained with SHP1358. The two other peptides were less efficient with percentage of 86% with EGIIVILVG (SEQ ID NO: 25) and only 27% with EGIIVIGVG (SEQ ID NO: 26).

Sequence | elafin level in induced culture versus uninduced culture (elafin; strain 1552, SHP 1 μM added at OD600 0.2, sampled at OD600 0.5) | production of elafin in the extracellular medium on addition of SHP (elafin; strain TIL1567 (ΔpptAB), SHP 0.5 μM added at OD600 0.2, detected at OD600 0.5 and 1) | maximum relative luciferase activity, percentage of the one obtained with SHP1358 (SHP/Rgg1358 system) [%]
EGIIVIVVG (listed as Streptococcus thermophilus) [SHP1358, mature small hydrophobic peptide of S. thermophilus LMD-9, inducer of Rgg1358] | much greater | restored | 
ESIIVIAVG (listed as Streptococcus thermophilus) |  |  | 95
EGIIVIGVG (listed as Streptococcus thermophilus) |  |  | 27
EGIIVILVG (listed as Streptococcus thermophilus) |  |  | 86
